In patent US20250123282A1, “METHODS FOR EVALUATION AND TREATMENT OF TYROSINE KINASE INHIBITOR (TKI)-RESISTANT ACUTE MYELOID LEUKEMIA” (LOMA LINDA UNIVERSITY, priority 2021, published 2025):

Columns and labels:
Type in all cases: cell-based, human
MOLM-14 cells = assay: Phase-bright imaging of re-growth of TKI-treated MOLM-14; conditions: 10 days after TKI treatment
Text: (§1) To follow the cell fate of TKI-treated MV4-11 and MOLM-14, culturing of blasts were continued by performing medium change every 2-3 days. […] The BAD protein is a pro-apoptotic member of the BCL-2 gene family, which is involved in initiating apoptosis. Dephosphorylated BAD is pro-apoptotic by binding BCL-2 and inactivating BCL-2, while phosphorylated BAD (pBAD) is anti-apoptotic by leaving BCL-2 free to inhibit BAX-triggered apoptosis.
Small Molecular Inhibitors and in vitro & ex vivo Treatment. […] The dose of 80 nM for the four TKIs was selected based on their dose-dependent cytotoxicity in previous reports. […] Both GILT and QUIZ were reported to start to suppress the tumorigenic clustering and c-Kit at the dose of 80 nM. […] The combination of 5 μM 5-Azacitidine (AZA) and 80 nM 1α,25-Dihydroxyvitamin D3 (VD3) was added to the experimental group similar to the previous report. As combination agents to treat blasts in vitro, one dose of 80 nM GILT with one dose of either 100 nM Venetoclax (BCL2 inhibitor), 10 μM (R)-Lisofylline (STAT4 inhibitor), 100 nM AZD1208 (PIM inhibitor), 500 nM PF-06826647 (TYK2 inhibitor), or 500 nM AT9283 (JAK2/3 inhibitor) were added to 1 ml of 1×10^6 cells for each experimental group in 24 well plates. Three days after the one dose treatment, cells were then collected for either analyses by FACS and qPCR, or re-plated into 24 well plates for continued culture. […]

MV4-11 cells [1] = assay: FACS of TKI-treated MV4-11 cells in vitro (viable blasts, Ki67, pBAD); conditions: 3 days after one dose of 80 nM TKI; vs non-treatment controls
Experimental: The AML cells were analyzed at different time points after exposure to TKI (3 days, 10 days, 20 days, and 28 days). […] After 3 days, FACS of the surface markers and intracellular proteins, including CD14, CD33, CD44, and Ki67, were performed. FIGS. 1A-1E depicts therapeutic effect of different TKIs on MV4-11 and MOLM-14 cells in vitro (N=6). […] The circles indicate the group of viable blasts located in a FACS plot and green arrows indicate the dying tendency of blasts which will become positive for viability dye during the next few days. FIGS. 1C and 1D are graphical representations of the cumulative FACS percentage data of viable MV4-11 and MOLM-14 cells. *P<0.05. […]
(§2) Flow Cytometry (FACS). […] About 1×10^4˜10^6 cells in 100 μl FACS buffer (PBS containing 1% FBS and 0.05% sodium azide) were stained with various fluorescence-conjugated antibodies specific for the desired cell surface proteins at 4° C. for 30 min. The surface-stained cells were then fixed and permeabilized using the appropriate reagents (e.g. the BD Pharmingen Cytofix/Cytoperm buffer) and stained with different fluorescence-conjugated antibodies specific for the desired intracellular proteins at 4° C. for 2 hours in the permeabilizing buffer (e.g. the BD Perm/Wash buffer). […] Finally, the cells were washed twice in the permeabilizing buffer and twice in the FACS buffer before being analyzed on the BD FACSAria II. […]

MV4-11 cells [2] = assay: Phase-bright imaging of re-growth of TKI-treated MV4-11
Text: as §1
Small Molecular Inhibitors and in vitro & ex vivo Treatment. […] The dose of 80 nM for the four TKIs was selected based on their dose-dependent cytotoxicity in previous reports. […] Both GILT and QUIZ were reported to start to suppress the tumorigenic clustering and c-Kit at the dose of 80 nM. […] The combination of 5 μM 5-Azacitidine (AZA) and 80 nM 1α,25-Dihydroxyvitamin D3 (VD3) was added to the experimental group similar to the previous report. As combination agents to treat blasts in vitro, one dose of 80 nM GILT with one dose of either 100 nM Venetoclax (BCL2 inhibitor), 10 μM (R)-Lisofylline (STAT4 inhibitor), 100 nM AZD1208 (PIM inhibitor), 500 nM PF-06826647 (TYK2 inhibitor), or 500 nM AT9283 (JAK2/3 inhibitor) were added to 1 ml of 1×10^6 cells for each experimental group in 24 well plates. Three days after the one dose treatment, cells were then collected for either analyses by FACS and qPCR, or re-plated into 24 well plates for continued culture. At different time points, re-plated cells were collected for analyses by FACS and qPCR. Medium change was performed every 2-3 days.
Imaging Acquisition. Phase-bright images were taken using an Olympus 1X71 inverted microscope and were processed using an Olympus cellSens Dimension 1.15 Imaging Software.

MV4-11 = assay: GILT-based combinatory treatments for MV4-11 in vitro (synergy, relapse, FACS, imaging)
Text: FLT3, the most frequently mutated gene in AML patients, is often associated with poorer overall survival with an increased risk of relapse. However, the anti-leukemic effects of the latest FLT3 inhibitors as monotherapy or in combination with standard treatments are constrained by a short duration of response and a high rate of relapse. Accordingly, whether targeting the compensation pathways along with administration of FLT3 inhibitors, e.g., GILT, prevents relapse. A list of the in vitro trials of GILT in combination with inhibitors (commercially available) targeting new pathways on MV4-11 is provided in Table 1. […]
as §2

SMILES | re-growth / tumorigenic clusters of MOLM-14 (MOLM-14 cells) | viable MV4-11 blasts (FACS) (MV4-11 cells [1]) | re-growth / tumorigenic clusters of MV4-11 (MV4-11 cells [2]; 10 days after TKI treatment) | re-growth / tumorigenic clusters of MV4-11 (MV4-11 cells [2]; 20 days after TKI treatment) | re-growth / relapse of MV4-11 (MV4-11 cells [2]; 28 days after TKI treatment) | population of viable blasts (FACS) (MV4-11; MV4-11, 3 days after combination treatment) | viable Ki67+CD33+CD44+ cells (cell number count) (MV4-11; MV4-11, 7 days after combination treatment)
CC(C)(C)c1cc(NC(=O)Nc2ccc(-c3cn4c(n3)sc3cc(OCCN5CCOCC5)ccc34)cc2)no1 [QUIZ, Quizartinib] | few newly formed tumorigenic clusters | more effective | few newly formed tumorigenic clusters | many tumorigenic clusters | grew confluent without tumorigenic clusters | – | –
CCc1nc(C(N)=O)c(Nc2ccc(N3CCC(N4CCN(C)CC4)CC3)c(OC)c2)nc1NC1CCOCC1 [GILT, Gilteritinib] | – | – | – | – | – | 26.9% | 180 cells
